A word on the EC30: it is the point of the concentration-response curve where the effect stands at 30%.

T1 sequence (P13569 with tags, fused parts or gaps DEL508-508): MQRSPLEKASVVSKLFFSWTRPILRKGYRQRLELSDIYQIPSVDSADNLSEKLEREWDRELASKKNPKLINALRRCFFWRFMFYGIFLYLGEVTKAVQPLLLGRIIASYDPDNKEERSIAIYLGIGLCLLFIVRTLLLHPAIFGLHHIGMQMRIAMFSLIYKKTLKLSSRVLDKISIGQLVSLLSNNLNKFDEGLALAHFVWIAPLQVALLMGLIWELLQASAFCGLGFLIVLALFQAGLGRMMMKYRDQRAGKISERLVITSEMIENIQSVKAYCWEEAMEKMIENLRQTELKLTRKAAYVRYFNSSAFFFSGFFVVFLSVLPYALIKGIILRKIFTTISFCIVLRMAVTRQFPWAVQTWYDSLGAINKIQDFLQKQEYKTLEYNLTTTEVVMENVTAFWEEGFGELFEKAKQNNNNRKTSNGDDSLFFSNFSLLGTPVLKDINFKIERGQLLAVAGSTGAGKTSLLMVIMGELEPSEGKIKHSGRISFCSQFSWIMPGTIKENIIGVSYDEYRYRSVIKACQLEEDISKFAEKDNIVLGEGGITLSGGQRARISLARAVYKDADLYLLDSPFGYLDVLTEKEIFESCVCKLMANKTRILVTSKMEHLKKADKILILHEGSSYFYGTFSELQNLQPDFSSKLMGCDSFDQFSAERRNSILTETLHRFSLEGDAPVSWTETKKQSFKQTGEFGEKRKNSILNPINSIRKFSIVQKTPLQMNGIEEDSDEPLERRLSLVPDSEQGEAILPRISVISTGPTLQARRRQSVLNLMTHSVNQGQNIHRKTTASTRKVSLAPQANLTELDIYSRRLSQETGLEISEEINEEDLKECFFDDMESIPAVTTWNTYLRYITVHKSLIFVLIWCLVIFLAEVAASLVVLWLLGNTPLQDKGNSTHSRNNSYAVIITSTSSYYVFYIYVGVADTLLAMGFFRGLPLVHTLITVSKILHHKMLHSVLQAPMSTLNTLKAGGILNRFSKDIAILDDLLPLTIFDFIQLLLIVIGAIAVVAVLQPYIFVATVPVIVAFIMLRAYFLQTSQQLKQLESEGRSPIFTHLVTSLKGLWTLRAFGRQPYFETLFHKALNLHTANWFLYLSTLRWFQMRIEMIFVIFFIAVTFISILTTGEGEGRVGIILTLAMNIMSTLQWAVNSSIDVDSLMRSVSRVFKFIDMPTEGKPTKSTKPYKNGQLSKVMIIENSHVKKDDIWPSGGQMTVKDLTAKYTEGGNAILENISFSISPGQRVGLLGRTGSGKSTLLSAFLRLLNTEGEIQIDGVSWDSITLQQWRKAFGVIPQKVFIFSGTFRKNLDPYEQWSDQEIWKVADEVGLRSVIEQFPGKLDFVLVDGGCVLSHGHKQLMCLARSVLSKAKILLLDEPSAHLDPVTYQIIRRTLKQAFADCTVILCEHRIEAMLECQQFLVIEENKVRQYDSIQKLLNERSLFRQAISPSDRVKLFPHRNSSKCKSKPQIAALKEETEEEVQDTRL

One experiment addresses T1, F508del (Homo sapiens, UniProt P13569, DEL508-508).
T1 construct: expressed in transfected cells
Description: Protocol 2: FRET membrane potential optical assay (VIPR), identification of correction compounds. It is filed as cell-based. The settings on record: F508del CFTR modulator activity; compounds of Table 1; read-out: EC30. The method in brief: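 Correction of the F508del trafficking defect is scored as forskolin (10 μM)/genistein (20 μM)-stimulated Cl^− efflux in NIH3T3 mouse fibroblasts after a 16 hr, 37° C. compound exposure. Depolarization was followed optically using voltage-sensing FRET dyes.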
For the molecule `CCC1(C)C[C@@H](C)CN1c1nc(-c2cc(F)cc(OCC(C)C)c2)ccc1C(=O)NS(=O)(=O)c1cccc(N)n1` (single isomer, unassigned) [Compound 2058, N-[(6-amino-2-pyridyl)sulfonyl]-2-(2-ethyl-2,4-dimethyl-pyrrolidin-1-yl)-6-(3-fluoro-5-isobutoxy-phenyl)pyridine-3-carboxamide], the 30% effect concentration (EC30) is under 3 µM. On the same count and under the same terms, the same measure for `Cc1ccc2nc(N3C[C@@H](C)CC3(C)C)c(C(=O)NS(=O)(=O)c3ccc[nH]c3=O)cc2c1` [Compound 2471, 6-methyl-N-[(2-oxo-1H-pyridin-3-yl)sulfonyl]-2-[(4S)-2,2,4-trimethylpyrrolidin-1-yl]quinoline-3-carboxamide]: 3 to 10 µM; for `CC1CN(c2ncccc2C(=O)NS(=O)(=O)c2cccc(Oc3ccccc3C(C)C)n2)C(C)(C)C1` (centres unmarked) [Compound 2486, N—[[6-(2-isopropylphenoxy)-2-pyridyl]sulfonyl]-2-(2,2,4-trimethylpyrrolidin-1-yl)pyridine-3-carboxamide]: under 3 µM; for `Cc1ccn(CCCNc2cccc(S(=O)(=O)NC(=O)c3cccnc3N3CC(C)CC3(C)C)n2)n1` (centres unmarked) [Compound 2550, N—[[6-[3-(3-methylpyrazol-1-yl)propylamino]-2-pyridyl]sulfonyl]-2-(2,2,4-trimethylpyrrolidin-1-yl)pyridine-3-carboxamide]: 3 to 10 µM. On the same count and under the same terms, to `CC1CN(c2ncccc2C(=O)NS(=O)(=O)c2cccc(OCCC3CCCC3)n2)C(C)(C)C1` (centres unmarked) [Compound 2630, N—[[6-(2-cyclopentylethoxy)-2-pyridyl]sulfonyl]-2-(2,2,4-trimethylpyrrolidin-1-yl)pyridine-3-carboxamide] belongs under 3 µM. As to `CC(=O)c1ccc(Nc2cccc(S(=O)(=O)NC(=O)c3cccnc3N3CC(C)CC3(C)C)n2)cc1` (centres unmarked) [Compound 2328, N—[[6-(4-acetylanilino)-2-pyridyl]sulfonyl]-2-(2,2,4-trimethylpyrrolidin-1-yl)pyridine-3-carboxamide], the EC30 was 3 to 10 µM. `COc1ccccc1-c1ccc(C(=O)NS(=O)(=O)c2ccc[nH]c2=O)c(N2C[C@@H](C)CC2(C)C)n1` [Compound 2485, 6-(2-methoxyphenyl)-N-[(2-oxo-1H-pyridin-3-yl)sulfonyl]-2-[(4S)-2,2,4-trimethylpyrrolidin-1-yl]pyridine-3-carboxamide]: the EC30 was under 3 µM. The same measure, in the same setting: the same measure for `CC1CN(c2ncccc2C(=O)NS(=O)(=O)c2cccc(OCc3cccs3)n2)C(C)(C)C1` (centres unmarked) [Compound 2181, N—[[6-(2-thienylmethoxy)-2-pyridyl]sulfonyl]-2-(2,2,4-trimethylpyrrolidin-1-yl)pyridine-3-carboxamide]: under 3 µM; for `Cc1c(F)cccc1-c1ccc(C(=O)NS(=O)(=O)c2cccc(N)n2)c(N2C[C@@H](C)CC2(C)C)n1` [Compound 2616, N-[(6-amino-2-pyridyl)sulfonyl]-6-(3-fluoro-2-methyl-phenyl)-2-[(4S)-2,2,4-trimethylpyrrolidin-1-yl]pyridine-3-carboxamide]: under 3 µM; for `CC(C)COc1cc(F)cc(-c2ccc(C(=O)NS(=O)(=O)C3CCCNC3)c(N3C[C@@H](C)CC3(C)C)n2)c1` (stereo partly drawn) [Compound 2655, 6-(3-fluoro-5-isobutoxy-phenyl)-N-(3-piperidylsulfonyl)-2-[(4S)-2,2,4-trimethylpyrrolidin-1-yl]pyridine-3-carboxamide]: under 3 µM. On the same count and under the same terms, the same measure for `CC1CN(c2ncc(-c3ccc(C4(CO)CC4)cc3)cc2C(=O)NS(=O)(=O)c2cccc(N)n2)C(C)(C)C1` (centres unmarked) [Compound 2112, N-[(6-amino-2-pyridyl)sulfonyl]-5-[4-[1-(hydroxymethyl)cyclopropyl]phenyl]-2-(2,2,4-trimethylpyrrolidin-1-yl)pyridine-3-carboxamide]: 3 to 10 µM; for `Cc1ccc(F)cc1-c1ccc(C(=O)NS(=O)(=O)N2CC[C@H](N)C2)c(N2C[C@@H](C)CC2(C)C)n1` [Compound 2490, N-[(3S)-3-aminopyrrolidin-1-yl]sulfonyl-6-(5-fluoro-2-methyl-phenyl)-2-[(4S)-2,2,4-trimethylpyrrolidin-1-yl]pyridine-3-carboxamide]: under 3 µM.

The experiment is the same for the next values; noted with them: Table 3; compounds of Table 1 as modulators of CFTR activity; protocol not stated.
Turning to `CC(C)COc1cc(F)cc(-c2ccc(C(=O)NS(=O)(=O)c3cccc(N)n3)c(N3CCC[C@H](c4ccccc4)C3)n2)c1` [Compound 651, N-[(6-amino-2-pyridyl)sulfonyl]-6-(3-fluoro-5-isobutoxy-phenyl)-2-[(3R)-3-phenyl-1-piperidyl]pyridine-3-carboxamide], the 30% effect concentration (EC30) entry was “+++ (“+++” means <3 uM)”.

Take `CCCOc1cc(-c2ccc(C(=O)NS(=O)(=O)c3cccc(N)n3)c(N3[C@H](C)CC[C@@H]3C)n2)ccc1Cl` [Compound 773, N-[(6-amino-2-pyridyl)sulfonyl]-6-(4-chloro-3-propoxy-phenyl)-2-[(2R,5S)-2,5-dimethylpyrrolidin-1-yl]pyridine-3-carboxamide]: the EC30 result is “+++ (“+++” means <3 uM)”. The same measure, in the same setting: the same measure for `Cc1cc(C)c(Cn2nc(C(C)(C)C)cc2C(=O)NS(=O)(=O)c2cccc3[nH]ccc23)c(C)c1` [Compound 180, 5-tert-butyl-N-(1H-indol-4-ylsulfonyl)-2-[(2,4,6-trimethylphenyl)methyl]pyrazole-3-carboxamide]: “+++ (“+++” means <3 uM)”; for `Cc1cc(C)c(Cn2c(C(=O)NS(=O)(=O)c3ccccc3)cc3ccc(C)cc32)c(C)c1` [Compound 12, N-(benzenesulfonyl)-6-methyl-1-[(2,4,6-trimethylphenyl)methyl]indole-2-carboxamide]: “+++ (“+++” means <3 uM)”.

On to `Cc1cc(C)c(Oc2nc(-c3cc(OCC(C)C)ccc3F)ccc2C(=O)NS(=O)(=O)c2ccc[nH]c2=O)c(C)c1` [Compound 279, 6-(2-fluoro-5-isobutoxy-phenyl)-N-[(2-oxo-1H-pyridin-3-yl)sulfonyl]-2-(2,4,6-trimethylphenoxy)pyridine-3-carboxamide], for which the EC30 entry was “+++ (“+++” means <3 uM)”.

In the case of `Cc1cccc(C)c1Cn1nc(C(C)(C)C)cc1C(=O)NS(=O)(=O)c1ccccc1F` [Compound 57, 5-tert-butyl-2-[(2,6-dimethylphenyl)methyl]-N-(2-fluorophenyl)sulfonyl-pyrazole-3-carboxamide], the 30% effect concentration (EC30) result was “+++ (“+++” means <3 uM)”.

As to `Cc1ccc(-c2ccc(C(=O)NS(=O)(=O)c3nccnc3N)c(Oc3ccc(C)cc3C)n2)cc1` [Compound 607, N-(3-aminopyrazin-2-yl)sulfonyl-2-(2,4-dimethylphenoxy)-6-(p-tolyl)pyridine-3-carboxamide], the EC30 entry is “+++ (“+++” means <3 uM)”. On the same count and under the same terms, the same measure for `COc1ccc(S(=O)(=O)NC(=O)c2ccc(C(C)(C)C)nc2-c2ccc(C)cc2)cn1` [Compound 512, 6-tert-butyl-N-[(6-methoxy-3-pyridyl)sulfonyl]-2-(p-tolyl)pyridine-3-carboxamide]: “++ (“++” means between 3 uM and 10 uM)”; for `Cc1cc(C)c(Cn2c(C(=O)NS(=O)(=O)c3cccc(N)c3)cc3ccc(F)cc32)c(C)c1` [Compound 142, N-(3-aminophenyl)sulfonyl-6-fluoro-1-[(2,4,6-trimethylphenyl)methyl]indole-2-carboxamide]: “+++ (“+++” means <3 uM)”. With `Cc1cc(C)c(Cn2nc(C(C)(C)C)cc2C(=O)NS(=O)(=O)c2cccc3ncccc23)c(C)c1` [Compound 352, 5-tert-butyl-N-(5-quinolylsulfonyl)-2-[(2,4,6-trimethylphenyl)methyl]pyrazole-3-carboxamide], the EC30 result was “+++ (“+++” means <3 uM)”.

As for `Cc1cc(C)c(Oc2nc(C3CCC(F)(F)CC3)ccc2C(=O)NS(=O)(=O)c2cccc(N)n2)c(C)c1` [Compound 783, N-[(6-amino-2-pyridyl)sulfonyl]-6-(4,4-difluorocyclohexyl)-2-(2,4,6-trimethylphenoxy)pyridine-3-carboxamide], the EC30 result was “+++ (“+++” means <3 uM)”. Same read-out and setting: to `COc1cc2cc(C(=O)NS(=O)(=O)c3cccc(N)c3)n(Cc3c(C)cc(C)cc3C)c2cc1OC` [Compound 598, N-(3-aminophenyl)sulfonyl-5,6-dimethoxy-1-[(2,4,6-trimethylphenyl)methyl]indole-2-carboxamide] belongs “++ (“++” means between 3 uM and 10 uM)”; to `CC(C)Oc1ccc(-c2ccc(C(=O)NS(=O)(=O)c3cccc(N)n3)c(N3CC[C@@H](C)[C@H]3C)n2)cn1` [Compound 441, N-[(6-amino-2-pyridyl)sulfonyl]-2-[(2R,3R)-2,3-dimethylpyrrolidin-1-yl]-6-(6-isopropoxy-3-pyridyl)pyridine-3-carboxamide], “+++ (“+++” means <3 uM)”. Still for that read-out and setting: the same measure for `COc1cc(S(=O)(=O)NC(=O)c2ccc(C(C)(C)C)nc2Oc2c(C)cc(C)cc2C)ccn1` [Compound 217, 6-tert-butyl-N-[(2-methoxy-4-pyridyl)sulfonyl]-2-(2,4,6-trimethylphenoxy)pyridine-3-carboxamide]: “+++ (“+++” means <3 uM)”; for `Cc1cc(C)c(Cn2c(C(=O)NS(=O)(=O)c3cc(N)ccn3)cc3ccccc32)c(C)c1` [Compound 23, N-[(4-amino-2-pyridyl)sulfonyl]-1-[(2,4,6-trimethylphenyl)methyl]indole-2-carboxamide]: “++ (“++” means between 3 uM and 10 uM)”. Consider `Cc1cc(C)c(Oc2nc(C(C)(C)C)ccc2C(=O)NS(=O)(=O)c2cccnc2)c(C)c1` [Compound 330, 6-tert-butyl-N-(3-pyridylsulfonyl)-2-(2,4,6-trimethylphenoxy)pyridine-3-carboxamide], for which the 30% effect concentration (EC30) entry is “+++ (“+++” means <3 uM)”. Still for that read-out and setting: the same measure for `Cc1ccc(Oc2nc(-c3cc(F)cc(OCC(C)C)c3)ccc2C(=O)NS(=O)(=O)c2ccn[nH]2)cc1` [Compound 758, 6-(3-fluoro-5-isobutoxy-phenyl)-2-(4-methylphenoxy)-N-(1H-pyrazol-5-ylsulfonyl)pyridine-3-carboxamide]: “++ (“++” means between 3 uM and 10 uM)”.

For the origin of these results see patent US10758534B2 (Vertex Pharmaceuticals Incorporated, priority 2014, dated 2020).
